Converted amounts (≈) assume the structure as drawn. Read-outs that look alike come from different tables or passages of the source.
Experiments:
Sarcina lutea = assay: In vitro minimal inhibitory concentration, Sarcina lutea; format: cell-based; conditions: pH 7.4
Procedure: (§1) In Table III below is set forth the in vitro minimal inhibitory concentration of gentamicin B, gentamicin B1 and gentamicin X all in the free base form against a variety of gram positive and gram negative microorganisms. The experiments were carried out in a yeast beef broth medium at pH 7.4.

[1] = tested on: Pseudomonas aeruginosa SC; assay: Protective activity in mice, Pseudomonas aeruginosa SC infection; format: in vivo; conditions: subcutaneous one hour after infection, survivors at 48 hours, read-out: PD50
Procedure: (§2) Infected non-treated controls die in about 18 to 24 hours. Generally 5-7 dose levels are administered to mice weighing about 20 grams in groups of 7-10.

Entamoeba histolytica = assay: Stated activity against Entamoeba histolytica
[2] = tested on: Staphylococcus aureus Smith; assay: Protective activity in mice, Staphylococcus aureus Smith infection; format: in vivo; conditions: sc, subcutaneous one hour after infection, survivors at 48 hours, read-out: PD50
Procedure: as §2

Syphacia obvelata [3] = assay: Stated anthelmintic activity against pinworms such as Syphacia obvelata
Syphacia obvelata [4] = assay: Anthelmintic activity in vivo against Syphacia obvelata in mice; design: species or system male Millerton mice
Streptococcus pyogenes = assay: In vitro minimal inhibitory concentration, Streptococcus pyogenes; format: cell-based; conditions: pH 7.4
Procedure: as §1

Klebsiella pneumoniae = assay: In vitro minimal inhibitory concentration, Klebsiella pneumoniae; format: cell-based; conditions: pH 7.4
Procedure: as §1

Staphylococcus aureus = assay: In vitro minimal inhibitory concentration, Staphylococcus aureus; format: cell-based; conditions: pH 7.4
Procedure: as §1

Staphylococcus aureus W = assay: Protective activity in mice, Staphylococcus aureus W infection; format: in vivo; conditions: sc, subcutaneous one hour after infection, survivors at 48 hours, read-out: PD50
Procedure: as §2

Salmonella paratyphi B = assay: Protective activity in mice, Salmonella paratyphi B infection; format: in vivo; conditions: Salmonella enterica, sc, subcutaneous one hour after infection, survivors at 48 hours, read-out: PD50
Procedure: as §2

Streptococcus pyogenes C = assay: Protective activity in mice, Streptococcus pyogenes C infection; format: in vivo; conditions: sc, subcutaneous one hour after infection, survivors at 48 hours, read-out: PD50
Procedure: as §2

Aerobacter aerogenes = assay: In vitro minimal inhibitory concentration, Aerobacter aerogenes; format: cell-based; conditions: pH 7.4
Procedure: as §1

Shigella sp. M324 = assay: In vitro minimal inhibitory concentration, Shigella sp. M324; format: cell-based; conditions: free base; yeast beef broth medium, pH 7.4
Procedure: as §1

Escherichia coli = assay: In vitro minimal inhibitory concentration, Escherichia coli; format: cell-based; conditions: pH 7.4
Procedure: as §1

Bacillus subtilis = assay: In vitro minimal inhibitory concentration, Bacillus subtilis; format: cell-based; conditions: pH 7.4
Procedure: as §1

Trichomonas vaginalis = assay: In vitro activity against Trichomonas vaginalis; format: cell-based; conditions: Trichomonas vaginalis; for MIC: read-out: Minimal 99% Suppression Level; for MBC: read-out: Minimal Cidal Level
Excerpt: In Table VI below is set forth the in vitro activity of the compounds of this invention against T. vaginalis. The test procedure used was substantially as described by R. J. Schnitzer on pages 289-331 in Experimental Chemotherapy, Volume 1, Academic Press, New York (1963).

[5] = Chronic toxicity (ataxia) in cats after daily subcutaneous dosing; format: in vivo
Excerpt: There appears to be a causal relationship between high doses of amino-glycoside type antibiotics given over an extended period of time and vestibular damage wherein one of the early manifestations is ataxia. […] Moreover, they may be used at such dosages for a time interval substantially beyond that normally required to eliminate infection without causing ataxia; and with minimal, if any, toxic manifestations. Thus, gentamicin B and gentamicin B1 represent a substantial improvement over antibiotics of this class (amino-glycoside) that are currently in use.

[6] = tested on: Staphylococcus aureus Gray; assay: Protective activity in mice, Staphylococcus aureus Gray infection; format: in vivo; conditions: sc, subcutaneous one hour after infection, survivors at 48 hours, read-out: PD50
Procedure: as §2

Pseudomonas aeruginosa = assay: In vitro minimal inhibitory concentration, Pseudomonas aeruginosa; format: cell-based; conditions: pH 7.4
Procedure: as §1

in vivo = conditions: mouse
Procedure: The acute toxicity of gentamicin B, gentamicin B1 and gentamicin X is determined in male CF-1 (Carworth Farms) mice weighing about 20 grams each.

Histomonas meleagridis = assay: Stated activity against Histomonas meleagridis
protozoa = conditions: cited from earlier work
helminths = conditions: cited from earlier work
[7] = free base, yeast beef broth medium, read-out: MIC

For `CNC1C(O)C(OC2C(N)CC(N)C(OC3OC(CN)C(O)C(O)C3O)C2O)OCC1(C)O` (centres unmarked) [Gentamicin B], the MIC (Sarcina lutea) was 0.3 µg/mL (≈ 0.622 µM), the ED50 [1] was 2 mg/kg and the “antiprotozoal activity (in words)” value (Entamoeba histolytica) was “to a lesser extent”. The ED50 [2] was 5 mg/kg, the “anthelmintic activity (in words)” value (Syphacia obvelata [3]) was “effective” and the “% Infected” value (Syphacia obvelata [4]; 8 mg/kg/day, 0.008% in diet) was 67%. The “Mean Worm Burden” value (Syphacia obvelata [4]; 8 mg/kg/day, 0.008% in diet) was 29.5, the “% Infected” value (Syphacia obvelata [4]; 39 mg/kg/day, 0.02% in diet) was 0% and the “Mean Worm Burden” value (Syphacia obvelata [4]; 39 mg/kg/day, 0.02% in diet) was 0. The “% Infected” value (Syphacia obvelata [4]; 100 mg/kg/day, 0.0625% in diet) was 0%, the “Mean Worm Burden” value (Syphacia obvelata [4]; 100 mg/kg/day, 0.0625% in diet) was 0 and the “% Infected” value (Syphacia obvelata [4]; 259 mg/kg/day, 0.25% in diet) was 0%. The “Mean Worm Burden” value (Syphacia obvelata [4]; 259 mg/kg/day, 0.25% in diet) was 0, the minimal effective dose (Syphacia obvelata [4]; Syphacia obvelata, read-out: minimum dosage with anthelmintic activity) was 39 mg/kg/day and the “anthelmintic activity (in words)” value (Syphacia obvelata [4]; male Millerton mice) was “exhibit anthelmintic activity”. For the same compound, the MIC (Streptococcus pyogenes) was 3 µg/mL (≈ 6.22 µM), the MIC (Klebsiella pneumoniae) was 3 µg/mL (≈ 6.22 µM) and the MIC (Staphylococcus aureus) was 0.3 to 3 µg/mL (≈ 0.622 to 6.22 µM). It also gave an ED50 (Staphylococcus aureus W) of 50 mg/kg, an ED50 (Salmonella paratyphi B) of 5 mg/kg and an ED50 (Streptococcus pyogenes C) of 15 mg/kg. For the same compound, the MIC (Aerobacter aerogenes) was 0.08 µg/mL (≈ 0.166 µM), the MIC (Shigella sp. M324) was 5 µg/mL (≈ 10.4 µM) and the MIC (Escherichia coli) was 0.03 to 0.3 µg/mL (≈ 0.0622 to 0.622 µM). For the same compound, the MIC (Bacillus subtilis) was 0.8 µg/mL (≈ 1.66 µM), the MIC (Trichomonas vaginalis; 24 h) was 25 µg/mL (≈ 51.8 µM) and the MBC (Trichomonas vaginalis; 24 h) was > 250 µg/mL. The MIC (Trichomonas vaginalis; 48 h) was 25 µg/mL (≈ 51.8 µM), the MBC (Trichomonas vaginalis; 48 h) was 25 µg/mL (≈ 51.8 µM) and the “ataxic potential (in words)” value ([5]; in vivo) was “low ataxic potential”. For the same compound, the “period of administration to cause impairment of the "righting reflex" and ataxia (in words)” value ([5]; in vivo) was “required substantially longer periods of administration at high doses”, the ED50 [6] was 20 mg/kg and the MIC (Pseudomonas aeruginosa) was 0.03 to 0.08 µg/mL (≈ 0.0622 to 0.166 µM). For the same compound, the LD50 (in vivo; ip) was 1750 mg/kg, the LD50 (in vivo; iv) was 228 mg/kg and the LD50 (in vivo; po) was > 250 mg/kg. For the same compound, the LD50 (in vivo; sc) was > 1500 mg/kg and the “antiprotozoal activity (in words)” value (Histomonas meleagridis) was “to a lesser extent”.

In the case of `CNC1C(O)C(OC2C(N)CC(N)C(OC3OC(C(C)N)C(O)C(O)C3O)C2O)OCC1(C)O` (centres unmarked) [Gentamicin B1], the MIC (Sarcina lutea; [7]) is reported as 0.3 µg/mL (≈ 0.604 µM), the ED50 [1] is reported as 2 mg/kg and the “antiprotozoal activity (in words)” value (Entamoeba histolytica) is reported as “to a lesser extent”. For the same compound, the ED50 [2] was 2.5 mg/kg, the “anthelmintic activity (in words)” value (Syphacia obvelata [3]) was “effective” and the MIC (Streptococcus pyogenes; [7]) was 3 µg/mL (≈ 6.04 µM). It also gave an MIC (Klebsiella pneumoniae; [7]) of 3 µg/mL (≈ 6.04 µM), an MIC (Staphylococcus aureus; [7]) of 0.3 to 3 µg/mL (≈ 0.604 to 6.04 µM) and an ED50 (Staphylococcus aureus W) of 50 mg/kg. It also gave an ED50 (Salmonella paratyphi B) of 4 mg/kg, an ED50 (Streptococcus pyogenes C) of 18 mg/kg and an MIC (Aerobacter aerogenes; [7]) of 0.08 µg/mL (≈ 0.161 µM). It also gave an MIC (Shigella sp. M324) of 5 µg/mL (≈ 10.1 µM), an MIC (Escherichia coli; [7]) of 0.08 to 0.3 µg/mL (≈ 0.161 to 0.604 µM) and an MIC (Bacillus subtilis; [7]) of 3 µg/mL (≈ 6.04 µM). For the same compound, the MIC (Trichomonas vaginalis; 24 hours) was 25 µg/mL (≈ 50.3 µM), the MBC (Trichomonas vaginalis; 24 hours) was > 250 µg/mL and the MIC (Trichomonas vaginalis; 48 hours) was 10 to 25 µg/mL (≈ 20.1 to 50.3 µM). The MBC (Trichomonas vaginalis; 48 hours) was 25 µg/mL (≈ 50.3 µM), the “Average No. Days to become ataxic” value ([5]; 40 mg/kg/day subcutaneous) was 108.0 days and the “Average No. Days to become ataxic” value ([5]; 60 mg/kg/day subcutaneous) was 69.0 days. For the same compound, the “Average No. Days to become ataxic” value ([5]; 240 mg/kg/day subcutaneous) was 21.0 days, the “period of administration to cause impairment of the "righting reflex" and ataxia (in words)” value ([5]; high doses) was “required substantially longer periods of administration at high doses” and the “ataxic potential (in words)” value ([5]; see Table VIII) was “low ataxic potential”. The ED50 [6] was 30 mg/kg, the MIC (Pseudomonas aeruginosa; [7]) was 0.08 µg/mL (≈ 0.161 µM) and the LD50 (in vivo; in vivo, ip) was 1600 mg/kg. The LD50 (in vivo; in vivo, iv) was 230 mg/kg, the LD50 (in vivo; in vivo, po) was > 250 mg/kg and the LD50 (in vivo; in vivo, sc) was > 1500 mg/kg. For the same compound, the “antiprotozoal activity (in words)” value (Histomonas meleagridis) was “to a lesser extent”.

In the case of `NC[C@@H]1O[C@H](O[C@H]2[C@@H](O)[C@H](O[C@@H]3[C@@H](O)[C@H](N)C[C@H](N)[C@H]3O[C@H]3O[C@H](CO)[C@@H](O)[C@H](O)[C@H]3N)O[C@@H]2CO)[C@H](N)[C@@H](O)[C@@H]1O` [paromomycin], the “antiprotozoal activity (in words)” value (protozoa) is listed as “known to exhibit antiprotozoal activity to any substantial degree” and the “anthelmintic activity (in words)” value (helminths) is listed as “exhibit anthelmintic activity in reasonably useful dosage ranges”.
